Measurements from PMC5680178, “D-Cateslytin, a new antimicrobial peptide with therapeutic potential” (Scientific Reports, 2017).
Converted amounts (≈) assume the structure as drawn. Like-named read-outs stand apart in the source and are kept apart here. Non-standard residues stand in square brackets, D forms with d. Residues, ends and D or L forms follow the SMILES beside them. No end group written: not given here.

Legend:
[1] = tested on: Parvimonas micra (ATCC 33270); test: microbe, parasite or virus in culture; conditions: ATCC33270, 24 h, read-out: MIC (MIC alone)
Method: (§5) According to the European Committee on Antimicrobial Susceptibility Testing[20], the effect of a combination between two antibacterial compounds can be evaluated by their FICI (Fractional Inhibitory Concentration Index). The FICI consists of the sum of the FICs of both antibacterial agents: FIC index = FICantimicrobial + FICD-Ctl. For each compound, the FIC was determined as the ratio between the MIC of the compound in combination (MICcombination) and the MIC of the compound acting alone (MICalone). On the basis of their FIC index, each combination was categorized as synergistic (≤0.5), additive (>0.5 to 1), indifferent (>1 to <4) or antagonistic (≥4).
(§6) Microorganisms were cultured according to the manufacturer’s or the owner’s instructions in their respective media: Luria Bertani broth (Sigma) was used for E. coli strains, Mueller Hinton broth (Difco) for S. aureus strains and Anaerobe Basal broth (Oxoid) for F. nucleatum, P. intermedia and P. micra.
(§7) The MIC was determined by broth microdilution. An overnight culture of each bacterial strain was diluted (approximately to OD600 = 0,001) and microorganisms were plated in 96-well plates in the presence of different concentrations of antimicrobials, D-Ctl or L-Ctl alone or in combination. Three technical replicates were performed for each condition. After 24 hours of incubation, the microorganism growth was assessed by optical density OD600 using a Multiskan™ EX microplate spectrophotometer (Thermo Fisher Scientific). […] Each experiment was performed with at least three biological replicates.

[2] = tested on: Prevotella intermedia (ATCC 49046); conditions: for FICI: sum of both FICs; for MIC (MIC alone): ATCC 49046, 24 h
Method: as §5, §6, §7

[3] = tested on: Parvimonas micra (ATCC 33270); conditions: for FIC: MICcombination/MICalone; for FICI: sum of both FICs; for MIC (MIC alone): broth microdilution, Anaerobe Basal broth, 24 h, OD600, 100% inhibition, modified Gompertz function, biological replicates
Method: as §5, §6, §7

[4] = tested on: Prevotella intermedia (ATCC 49046); test: microbe, parasite or virus in culture; conditions: ATCC49046, 24 h, read-out: MIC (MIC alone)
Method: as §5, §6, §7

[5] = tested on: Fusobacterium nucleatum (ATCC 49256); conditions: for FICI: sum of both FICs; for MIC (MIC alone): ATCC 49256, 24 h
Method: as §5, §6, §7

[6] = tested on: Fusobacterium nucleatum (ATCC 49256); test: microbe, parasite or virus in culture; conditions: ATCC49256, 24 h, read-out: MIC (MIC alone)
Method: as §5, §6, §7

[7] = tested on: Escherichia coli (ATCC 25922); test: microbe, parasite or virus in culture; format: cell-based
Method: (§1) The MIC was determined by broth microdilution. […] Three technical replicates were performed for each condition.

[8] = tested on: E. coli (ATCC 25922) wild type; conditions: cultured with ½ MIC of the agent, diluted daily, for 24 days; value at day 24; three technical replicates
Method: An E. coli (ATCC® 25922™) culture was sequentially diluted every day in the presence of the different antibacterial compounds: D-Ctl, ampicillin or cefotaxime at ½ MIC during 24 days. The changes in the MICs values were determined as previously described by broth microdilution at the indicated times. The experiment was performed with three technical replicates.

[9] = tested on: Escherichia coli (MDR) (K-12); test: microbe, parasite or virus in culture; conditions: 24 h, read-out: MIC (MIC alone)
Method: as §5, §6, §7

[10] = tested on: Escherichia coli (MDR) (K-12); conditions: for FIC: MICcombination/MICalone; for FICI: sum of both FICs; for MIC (MIC alone): broth microdilution, Luria Bertani broth, 24 h, OD600, lowest concentration inhibiting 100% of inoculum, modified Gompertz function, biological replicates
Method: as §5, §6, §7

[11] = tested on: secreted proteases from P. micra; conditions: 400 μL filtered culture supernatant of P. micra, 37 °C, 24 hours; RP-HPLC C18, 214 nm, versus peptide in water
Method: (§2) Bacterial supernatant was prepared as follows: a single colony of each strain was resuspended in 5 mL of culture medium as indicated above and incubated at 37 °C overnight. The culture was then centrifuged at 10000 g for 1 min and the supernatant was filtered using a […] MillexH-GV (Millipore, Carrigtwohill, Ireland). An aliquot of each supernatant was incubated at 37 °C for 48 hours. Absence of growth was interpreted as lack of viable microorganism. 400 μL of supernatant was then incubated with or without each peptide of interest at 37 °C for 24 hours. As a control, each peptide was incubated in water at 37 °C for 24 hours. Samples were then separated using a Dionex HPLC system (Ultimate 3000; Sunnyvale, CA USA) on a Nucleosil reverse-phase 300–5C18-column ([…]; particle size: […]; porosity, 300 Å) (Macherey Nagel, Hoerdt, France). Absorbance was monitored at 214 nm and the solvent system consisted of 0.1% (v/v) TFA in water (solvent A) and 0.09% (v/v) TFA in 70% (v/v) acetonitrile-water (solvent B). Elution was performed at a flow rate of […] with a gradient of solvent B as indicated on the chromatograms.

[12] = tested on: secreted proteases from E. coli MDR; conditions: 400 μL filtered culture supernatant of E. coli MDR, 37 °C, 24 hours; RP-HPLC C18, 214 nm, versus peptide in water
Method: as §2

[13] = tested on: secreted proteases from F. nucleatum; conditions: 400 μL filtered culture supernatant of F. nucleatum, 37 °C, 24 hours; RP-HPLC C18, 214 nm, versus peptide in water
Method: as §2

[14] = tested on: secreted proteases from S. aureus methicillin resistant (MRSA); conditions: 400 μL filtered culture supernatant of MRSA, 37 °C, 24 hours; RP-HPLC C18, 214 nm, versus peptide in water
Method: as §2

[15] = tested on: secreted proteases from E. coli wild type; conditions: 400 μL filtered culture supernatant of E. coli wild type, 37 °C, 24 hours; RP-HPLC C18, 214 nm, versus peptide in water
Method: as §2

[16] = tested on: secreted proteases from P. intermedia; conditions: 400 μL filtered culture supernatant of P. intermedia, 37 °C, 24 hours; RP-HPLC C18, 214 nm, versus peptide in water
Method: as §2

[17] = tested on: secreted proteases from S. aureus methicillin sensitive (MSSA); conditions: 400 μL filtered culture supernatant of MSSA, 37 °C, 24 hours; RP-HPLC C18, 214 nm, versus peptide in water
Method: as §2

[18] = tested on: Staphylococcus aureus (MRSA) (S1); conditions: for FIC: MICcombination/MICalone; for FICI: sum of both FICs
Method: as §5, §6, §7

[19] = tested on: Staphylococcus aureus (MSSA) (ATCC 25923); test: microbe, parasite or virus in culture; conditions: for FIC: MICcombination/MICalone; for FICI: sum of both FICs
Method: as §1

[20] = tested on: Staphylococcus aureus (MRSA) (S1); test: microbe, parasite or virus in culture; conditions: 24 h, read-out: MIC (MIC alone)
Method: as §5, §6, §7

[21] = tested on: epithelial cells, smooth muscle cells and T cells; conditions: cited from earlier work
Source text: In the last decade, there have been a few HDPs entering clinical trials, specifically cathelicidins and defensins natural peptides or derivatives such as LL-37, MBI-226 (studies NCT00211523, NCT00211497 and NCT00027248 for the prevention of central venous catheter-related bloodstream infections and acne) and PMX-30063 (study NCT01211470 for acute bacterial skin and skin-structure infection). However, the clinical and commercial development of these peptide-based drugs has some limitations such as high cost of production, susceptibility to proteases and cytotoxicity. For example, the human cath ...

[22] = tested on: aureolysin; conditions: cited from earlier work
Source text: (§3) To this aim, different bacterial ...

[23] = tested on: V8; conditions: cited from earlier work
Source text: as §3

[24] = tested on: secreted proteases from S. aureus methicillin resistant (MRSA); conditions: supernatant of MRSA, previous study; cited from earlier work
Source text: (§4) Linear L-peptides with α-helical structures are usually susceptible to proteolysis. […] The specific spatial configurations of the cleavage sites for these enzymes are not present in D-peptides although these peptides might be cleaved by non-specific hydrolysis during enzymatic digestion. Subsequently, we assessed the sensitivity of D-Ctl to secreted bacterial proteases by HPLC. To this aim, different bacterial ...

[25] = tested on: secreted proteases from S. aureus methicillin sensitive (MSSA); conditions: supernatant of MSSA, previous study; cited from earlier work
Source text: as §4

[26] = combination D-Ctl + amoxicillin, MICcombination/MICalone
[27] = combination D-Ctl + amoxicillin, category by FIC index
[28] = combination D-Ctl + amoxicillin
[29] = broth microdilution, Mueller Hinton broth, 24 h, OD600, 100% inhibition, modified Gompertz function, biological replicates
[30] = combination D-Ctl + methicillin

CC1(C)S[C@@H]2[C@H](NC(=O)[C@H](N)c3ccc(O)cc3)C(=O)N2[C@H]1C(=O)O [Amoxicillin]
MIC [1]: 0.5 µg/mL (≈ 1.37 µM) | FIC [2, 26]: 0.25 | Effect [2, 27]: Synergistic | FICI [2, 28]: 0.5 | FIC [3, 28]: 0.25 | Effect [3, 27]: Synergistic | FICI [3, 28]: 0.5 | MIC [4]: 0.5 µg/mL (≈ 1.37 µM) | FIC [5, 26]: 0.5 | Effect [5, 27]: Additive | FICI [5, 28]: 1.0 | MIC [6]: 0.6 µg/mL (≈ 1.64 µM)

CC1(C)S[C@@H]2[C@H](NC(=O)[C@H](N)c3ccccc3)C(=O)N2[C@H]1C(=O)O [Ampicillin]
MIC ([7]; Escherichia coli, ATCC25922, broth microdilution, Luria Bertani broth, 24 h, OD600, lowest concentration inhibiting 100% of inoculum, modified Gompertz function, biological replicates, read-out: MIC): 7 µg/mL (≈ 20 µM) | fold change in MIC under selective pressure [8]: 3 x MIC

CO/N=C(\C(=O)N[C@@H]1C(=O)N2C(C(=O)O)=C(COC(C)=O)CS[C@H]12)c1csc(N)n1 [Cefotaxime]
fold change in MIC under selective pressure [8]: 3 x MIC | MIC [9]: 0.1 µg/mL (≈ 0.22 µM) | FIC ([10]; combination D-Ctl + cefotaxime): 0.5 | Effect ([10]; combination D-Ctl + cefotaxime, category by FIC index): Additive | FICI ([10]; combination D-Ctl + cefotaxime): 1.0

CSCC[C@@H](NC(=O)[C@@H](CO)NC(=O)[C@H](N)CCCNC(=N)N)C(=O)N[C@H](CCCNC(=N)N)C(=O)N[C@H](CC(C)C)C(=O)N[C@H](CO)C(=O)N[C@H](Cc1ccccc1)C(=O)N[C@H](CCCNC(=N)N)C(=O)N[C@H](C)C(=O)N[C@H](CCCNC(=N)N)C(=O)NCC(=O)N[C@H](Cc1ccc(O)cc1)C(=O)NCC(=O)N[C@H](Cc1ccccc1)C(=O)N[C@H](CCCNC(=N)N)C(=O)O [D-Ctl, D-Cateslytin] (H-[dR][dS][dM][dR][dL][dS][dF][dR][dA][dR]G[dY]G[dF][dR]-OH)
MIC ([7]; ATCC 25922, 24 h): 8.0 µg/mL (≈ 4.3 µM) | MIC (MIC alone) [2]: 10 µg/mL (≈ 5.38 µM) | FICI [2, 28]: 0.5 | stability in bacterial supernatant [11]: not degraded | stability in bacterial supernatant [12]: not degraded | stability in bacterial supernatant [13]: not degraded | stability in bacterial supernatant [14]: not degraded | stability in bacterial supernatant [15]: not degraded | stability in bacterial supernatant [16]: not degraded | stability in bacterial supernatant [17]: not degraded | MIC (MIC alone) [3]: 23 µg/mL (≈ 12.4 µM) | FIC [3, 28]: 0.25 | FICI [3, 28]: 0.5 | MIC (MIC alone) [5]: 22 µg/mL (≈ 11.8 µM) | FICI [5, 28]: 1.0 | MIC (MIC alone) [10]: 8.4 µg/mL (≈ 4.52 µM) | FIC ([10]; combination D-Ctl + cefotaxime): 0.5 | FICI ([10]; combination D-Ctl + cefotaxime): 1.0 | MIC (MIC alone) [18, 29]: 18 µg/mL (≈ 9.68 µM) | FIC ([18]; combination D-Ctl + vancomycin): 1 | FICI ([18]; combination D-Ctl + vancomycin): 2 | MIC (MIC alone) [19, 29]: 24 µg/mL (≈ 12.9 µM) | FIC [19, 30]: 0.5 | FICI [19, 30]: 0.75

NC[C@H]1O[C@H](O[C@H]2[C@H](O)[C@@H](O[C@H]3O[C@H](CO)[C@@H](O)[C@H](N)[C@H]3O)[C@H](N)C[C@@H]2N)[C@H](O)[C@@H](O)[C@@H]1O [Kanamycin]
MIC ([7]; broth microdilution, Luria Bertani broth, 24 h, OD600, lowest concentration inhibiting 100% of inoculum, modified Gompertz function, biological replicates): 21.6 µg/mL (≈ 44.6 µM)

COc1cccc(OC)c1C(=O)N[C@@H]1C(=O)N2[C@@H]1SC(C)(C)[C@@H]2C(=O)O [Methicillin]
MIC ([19]; Staphylococcus aureus, 24 h, read-out: MIC (MIC alone)): 1.2 µg/mL (≈ 3.15 µM) | FIC [19, 30]: 0.25 | MIC combination ([19]; combination D-Ctl + methicillin, broth microdilution, at least in duplicate): 0.3 µg/mL | Effect ([19]; combination D-Ctl + methicillin, category by FIC index): Additive | FICI [19, 30]: 0.75

CN[C@H](CC(C)C)C(=O)N[C@H]1C(=O)N[C@@H](CC(N)=O)C(=O)N[C@H]2C(=O)N[C@H]3C(=O)N[C@H](C(=O)N[C@H](C(=O)O)c4cc(O)cc(O)c4-c4cc3ccc4O)[C@H](O)c3ccc(c(Cl)c3)Oc3cc2cc(c3O[C@@H]2O[C@H](CO)[C@@H](O)[C@H](O)[C@H]2O[C@H]2C[C@](C)(N)[C@H](O)[C@H](C)O2)Oc2ccc(cc2Cl)[C@H]1O [Vancomycin]
FIC ([18]; combination D-Ctl + vancomycin): 1 | Effect ([18]; combination D-Ctl + vancomycin, category by FIC index): Indifferent | FICI ([18]; combination D-Ctl + vancomycin): 2 | MIC [20]: 0.8 µg/mL (≈ 0.552 µM)

LL-37: human cathelicidin host defence peptide
level at which apoptosis is enhanced [21]: above 10 µM | proteolysis by secreted S. aureus protease [22]: cleavage | proteolysis by secreted S. aureus protease [23]: cleavage

RSMRLSFRARGYGFR [L-Ctl, L-Cateslytin]
stability in bacterial supernatant [24]: stable | stability in bacterial supernatant [25]: stable | MIC ([7]; ATCC 25922, 24 h): 75 µg/mL | MIC (MIC alone) [2]: 149 µg/mL | stability in bacterial supernatant [11]: resistant to the degradation | stability in bacterial supernatant [12]: degraded | stability in bacterial supernatant [13]: resistant to the degradation | stability in bacterial supernatant [15]: degraded | stability in bacterial supernatant [16]: resistant to the degradation | MIC (MIC alone) [3]: 120 µg/mL | MIC (MIC alone) [5]: 125 µg/mL | MIC (MIC alone) [10]: 150 µg/mL
